This is an account of results in ChEMBL document CHEMBL4342442, “Usnic Acid Enaminone-Coupled 1,2,3-Triazoles as Antibacterial and Antitubercular Agents” (J Nat Prod, 2020).

For experiment [1], the system named is Mycobacterium tuberculosis. The experiment in a line: Antitubercular activity against Mycobacterium tuberculosis H37Rv assessed as reduction in microbial growth after 7 days by alamar blue assay. It is filed as functional. Particulars: 168 h. (Resazurin is reduced to fluorescent resorufin, in cell work by metabolically active cells.)
For experiment [2], the system named is Mycobacterium tuberculosis. Nature of the experiment: Antitubercular activity against Mycobacterium tuberculosis H37Rv assessed as log reduction in bacterial population at 10 ug/ml under starvation condition after 7 days by MPN assay. It is filed as functional.
For experiment [3], the system named is Staphylococcus aureus. Nature of the experiment: Antibacterial activity against Staphylococcus aureus MTCC 96 assessed as diameter of zone of inhibition at 200 ug/ml after 24 hrs by agar well diffusion method. It is filed as functional.
Experiment [4] deals with Staphylococcus epidermidis. The experiment in a line: Antibacterial activity against Staphylococcus epidermidis assessed as diameter of zone of inhibition at 200 ug/ml after 24 hrs by agar well diffusion method. It is filed as functional. A general note: A growth-free zone around the sample is the usual read-out of agar diffusion tests.
Experiment [5] relates to Bacillus subtilis. Nature of the experiment: Antibacterial activity against Bacillus subtilis MTCC 441 assessed as diameter of zone of inhibition at 200 ug/ml after 24 hrs by agar well diffusion method. It is filed as functional. Particulars: MTCC 441, 24 h, read-out: DIZ.
In experiment [6] the test system is Escherichia coli. The experiment in a line: Antibacterial activity against Escherichia coli MTCC 443 assessed as diameter of zone of inhibition at 200 ug/ml after 24 hrs by agar well diffusion method. It is filed as functional.
Experiment [7] concerns Pseudomonas aeruginosa. Nature of the experiment: Antibacterial activity against Pseudomonas aeruginosa MTCC 741 assessed as diameter of zone of inhibition at 200 ug/ml after 24 hrs by agar well diffusion method. It is filed as functional.
The subject of experiment [8] is Klebsiella pneumoniae. Nature of the experiment: Antibacterial activity against Klebsiella pneumoniae MTCC 618 assessed as diameter of zone of inhibition at 200 ug/ml after 24 hrs by agar well diffusion method. It is filed as functional.
Experiment [9] deals with Staphylococcus aureus. The experiment in a line: Antibacterial activity against Staphylococcus aureus MTCC 96 assessed as reduction in microbial growth after 24 hrs by CLSI based microdilution method. It is filed as functional. Particulars: MTCC 96, 24 h. (In general: Broth dilution looks for growth in wells or tubes with falling amounts of substance.)
Experiment [10] has as its system Staphylococcus epidermidis. Nature of the experiment: Antibacterial activity against Staphylococcus epidermidis assessed as reduction in microbial growth after 24 hrs by CLSI based microdilution method. It is filed as functional.
The subject of experiment [11] is Bacillus subtilis. The experiment in a line: Antibacterial activity against Bacillus subtilis MTCC 441 assessed as reduction in microbial growth after 24 hrs by CLSI based microdilution method. It is filed as functional. Particulars: MTCC 441, 24 h.
Experiment [12] concerns Escherichia coli. The experiment in a line: Antibacterial activity against Escherichia coli MTCC 443 assessed as reduction in microbial growth after 24 hrs by CLSI based microdilution method. It is filed as functional. Particulars: MTCC 443, 24 h.
The subject of experiment [13] is Pseudomonas aeruginosa. The experiment in a line: Antibacterial activity against Pseudomonas aeruginosa MTCC 741 assessed as reduction in microbial growth after 24 hrs by CLSI based microdilution method. It is filed as functional. Particulars: MTCC 741, 24 h.
The subject of experiment [14] is Klebsiella pneumoniae. Nature of the experiment: Antibacterial activity against Klebsiella pneumoniae MTCC 618 assessed as reduction in microbial growth after 24 hrs by CLSI based microdilution method. It is filed as functional. Particulars: MTCC 618, 24 h.
The subject of another experiment is CHO-K1. The experiment in a line: Cytotoxicity against CHOK1 cells assessed as reduction in cell viability after 24 hrs by MTT assay. It is filed as cell-based. Particulars: Cricetulus griseus, CHO-K1, 24 h.
Experiment [15] is described as follows: Cytotoxicity against HEK cells assessed as reduction in cell viability after 24 hrs by MTT assay. It is filed as cell-based, Homo sapiens.
Setting [16] is: Homo sapiens, HEK293, 24 h, read-out: IC50.

Structures are written as SMILES. Activity calls are given as the source filed them. The rule behind the calls is not given here.

Regarding `CC(=O)c1c(O)c(C)c(O)c2c1OC1=CC(=O)/C(=C(/C)NCc3cn(CC(=O)c4ccc5ccccc5c4)nn3)C(=O)C12C` (stereo unspecified), the minimal inhibitory concentration (MIC) in [1] is 5.3 µM; in the experiment with Staphylococcus aureus [9] it was more than 350 µM; in experiment [10], more than 350 µM; in the experiment with Bacillus subtilis [11], 169 µM; in the experiment with Escherichia coli [12], more than 350 µM; in the experiment with Pseudomonas aeruginosa [13], more than 350 µM. In addition, the MIC in the experiment with Klebsiella pneumoniae [14] is more than 350 µM. In experiment [2], the FC came to 2.1. Also, the “diameter of the inhibition zone (DIZ)” value (in the experiment with Staphylococcus aureus [3]; in experiment [4]; with Escherichia coli [6]; with Pseudomonas aeruginosa [7]; with Klebsiella pneumoniae [8]) was “inactive” throughout. Moreover, the zone of inhibition at 200 µg/mL in the experiment with Bacillus subtilis [5] turned out to be 11 mm. For the same molecule, the values for the IC50 (in the experiment with CHO-K1; in [15]) were 67.4 µM and “Non-Toxic”, respectively.

On to `CC(=O)c1c(O)c(C)c(O)c2c1OC1=CC(=O)/C(=C(/C)NCc3cn(CCN4C(=O)c5ccccc5S4(=O)=O)nn3)C(=O)C12C` (stereo unspecified), for which, in experiment [1], the minimal inhibitory concentration (MIC) was 2.5 µM. Further, the FC in [2] turned out to be 2.8. The IC50 stood at 12.1 µM with CHO-K1 and 91.8 µM in experiment [15] (setting [16]).

Regarding `COc1ccccc1N1CCN(C(=O)Cn2cc(CN/C(C)=C3\C(=O)C=C4Oc5c(C(C)=O)c(O)c(C)c(O)c5C4(C)C3=O)nn2)CC1` (stereo unspecified), the minimum inhibitory concentration (MIC) in experiment [1] is 9.5 µM; with Staphylococcus aureus [9], more than 350 µM; in experiment [10], more than 350 µM; in the experiment with Bacillus subtilis [11], 305 µM; with Escherichia coli [12], more than 350 µM; with Pseudomonas aeruginosa [13], more than 350 µM. The MIC with Klebsiella pneumoniae [14] was more than 350 µM. Moreover, the “diameter of the inhibition zone (DIZ)” value (in the experiment on Staphylococcus aureus [3]; in experiment [4]; in the experiment on Escherichia coli [6]; in the experiment on Pseudomonas aeruginosa [7]; with Klebsiella pneumoniae [8]) was “inactive” each time. In addition, the zone of inhibition at 200 µg/mL in the experiment on Bacillus subtilis [5] came to 10 mm. Also, the results for the IC50 (with CHO-K1; in [15]) were 40.4 µM and “Non-Toxic”, respectively.

`CC(=O)c1c(O)c(C)c(O)c2c1OC1=CC(=O)/C(=C(/C)NCc3cn(CC(=O)c4c(F)c(F)c(F)c(F)c4F)nn3)C(=O)C12C` (stereo unspecified): the MIC was 39.5 µM in [1]; more than 350 µM with Staphylococcus aureus [9]; more than 350 µM in experiment [10]; 158 µM in the experiment with Bacillus subtilis [11]; more than 350 µM with Escherichia coli [12]; more than 350 µM in the experiment with Pseudomonas aeruginosa [13]. For the same molecule, the minimal inhibitory concentration (MIC) with Klebsiella pneumoniae [14] was more than 350 µM. Besides, the “diameter of the inhibition zone (DIZ)” value (in the experiment with Staphylococcus aureus [3]; in [4]; with Escherichia coli [6]; with Pseudomonas aeruginosa [7]; in the experiment with Klebsiella pneumoniae [8]) was “inactive” each time. The zone of inhibition at 200 µg/mL in the experiment with Bacillus subtilis [5] was 12 mm. In addition, the IC50 with CHO-K1 was 67.6 µM; in experiment [15], “Non-Toxic”.

`CC(=O)c1c(O)c(C)c(O)c2c1OC1=CC(=O)/C(=C(/C)NCc3cn(CC(=O)N4CCOCC4)nn3)C(=O)C12C` (stereo unspecified): the minimum inhibitory concentration (MIC) in experiment [1] was 22.3 µM; in the experiment with Staphylococcus aureus [9], more than 350 µM; in [10] it was more than 350 µM; in the experiment with Bacillus subtilis [11], 90.7 µM; in the experiment on Escherichia coli [12], more than 350 µM; with Pseudomonas aeruginosa [13], more than 350 µM. Further, in the experiment on Klebsiella pneumoniae [14], the MIC is more than 350 µM. In addition, the “diameter of the inhibition zone (DIZ)” value (with Staphylococcus aureus [3]; in experiment [4]; with Escherichia coli [6]; in the experiment with Pseudomonas aeruginosa [7]; with Klebsiella pneumoniae [8]) was “inactive” in each case. Moreover, the zone of inhibition at 200 µg/mL in the experiment on Bacillus subtilis [5] worked out at 13 mm. Also, the 50% inhibitory concentration (IC50) in the experiment with CHO-K1 turned out to be 23.3 µM; in [15] (setting [16]), 53.4 µM.

`CC(=O)c1c(O)c(C)c(O)c2c1OC1=CC(=O)/C(=C(/C)NCc3cn(CC(=O)c4ccc(F)c(F)c4)nn3)C(=O)C12C` (stereo unspecified): the MIC was 5.4 µM in experiment [1]; more than 350 µM in the experiment on Staphylococcus aureus [9]; more than 350 µM in [10]; 173 µM in the experiment on Bacillus subtilis [11]; more than 350 µM with Escherichia coli [12]; more than 350 µM in the experiment with Pseudomonas aeruginosa [13]. In the experiment on Klebsiella pneumoniae [14], the MIC was more than 350 µM. Moreover, the FC in experiment [2] came to 2.5. Besides, the “diameter of the inhibition zone (DIZ)” value (with Staphylococcus aureus [3]; in [4]; with Escherichia coli [6]; in the experiment with Pseudomonas aeruginosa [7]; in the experiment with Klebsiella pneumoniae [8]) was “inactive” each time. In the experiment with Bacillus subtilis [5], the zone of inhibition at 200 µg/mL stood at 12 mm. Besides, the concentration for half-maximal inhibition (IC50) in the experiment with CHO-K1 came to 53.4 µM; in experiment [15] (setting [16]) it was 52 µM.

Take `CC(=O)c1c(O)c(C)c(O)c2c1OC1=CC(=O)/C(=C(/C)NCc3cn(CC(=O)c4cccc(C(F)(F)F)c4)nn3)C(=O)C12C` (stereo unspecified): the MIC is 41 µM in experiment [1]; more than 350 µM in the experiment with Staphylococcus aureus [9]; more than 350 µM in [10]; 40.9 µM in the experiment with Bacillus subtilis [11]; more than 350 µM with Escherichia coli [12]; more than 350 µM in the experiment with Pseudomonas aeruginosa [13]. Moreover, the MIC in the experiment with Klebsiella pneumoniae [14] is more than 350 µM. Moreover, the “diameter of the inhibition zone (DIZ)” value (with Staphylococcus aureus [3]; in experiment [4]; with Escherichia coli [6]; in the experiment on Pseudomonas aeruginosa [7]; with Klebsiella pneumoniae [8]) was “inactive” in each case. Further, the zone of inhibition at 200 µg/mL in the experiment on Bacillus subtilis [5] amounted to 15 mm. In addition, the IC50 in the experiment with CHO-K1 was 25.6 µM; in experiment [15] (setting [16]), 91.3 µM.

By MIC is commonly meant the least concentration at which growth counts as inhibited. Usually IC50 stands for the concentration that inhibits the measured activity by half.
